Data as given in patent publication US12133486B2, “Methods of propagation of arbuscular mycorrhizal fungi (AMF) and uses thereof” (Terra Microbes, LLC, priority 2021, dated 2024).

Legend:
[1] = tested on: AM fungi (mixed INVAM inoculum); experiment: Pot study: AM fungal spore production in steamed ML soil/sand with INVAM inoculum, planted or unplanted; format: in vivo; conditions: for AM Fungal Spores per 100 g soil: 80 ppm treatment P, end of study at 66 days, start 408 spores per 100 g; for increase in spore population from the start of the study: planted with yellow sweet clover; for increase in spore population from the start of the study / increase in spore population at 66 days over the levels at time 0: 66 days vs 408 spores per 100 g at time 0
Description: (§1) This Example is an un-replicated study to examine whether PO3^−3 (phosphite) impacts spore production and infection rate of AM fungi. The fungi were a mixed inoculum source from the University of West Virginia (UWV). UWV holds and maintains the International Culture Collection of (Vesicular) Arbuscular Mycorrhizal Fungi (INVAM). The plant used was yellow blossom sweet clover (Melilotus officinalis). All pots were inoculated, but only half were planted. Each Experimental unit was a 20 cm pot. Substrate for the units were a soil, sand, and inoculum mixture.
A known AM fungal inoculum was obtained from The International Culture Collection of (Vesicular) Arbuscular Mycorrhizae (invam.wvu.edu, Director Matt Kasson) maintained at the University of West Virginia in Morgantown, WV, US. A mixed culture of four AM fungal species was ordered. The mixture contained 250 ml of soil inoculum of each species. The total weight the entire mixed sample was 1345 grams and thus a bulk density of the sample of 1.345 g/ml. The material received contained the following species: Claroideoglomus etunicatum., Accession number AZ 201C (initially described by Becker W. N. and Gerdemann J. W., Mycotaxon, 6:29, 1977, as Glomus etunicatum.), spores were orange to red-brown, globose, subglobose; 60-160 μm diameter; mean 129 μm (n=120); Rhizophagus clarus, Accession number AZ 151D (initially described by Schenck, N. Mycologia, 71:182, 1979, as Glomus clarum.), spores are from white to yellow brown with many pale yellow to pale yellow brown, 100 to 260 μm diameter, mean 182 μm (n=120); Rhizophagus intraradices, Accession number AZ 123 (initially described by Schenck, N. Mycologia, 74:78, 1982, as Glomus intraradices), spores were white, pale cream, to yellow, brown, sometimes with a green hint, globose, subglobose, irregular. 40 to 140 μm diameter, mean 93.3 (n=170); and Septoglomus deserticola, Accession number CA 113 (initially described by Trappe J. Bluss and Menge J., 1984, Mycotaxon, 20:123, 1984, as Glomus deserticola), spores are orange-brown to dark red brown, most are reddish brown, globose to subglobose, sometimes irregular, 60 to 140 μm diameter.
(§2) The present example was designed as a pot experiment where each pot was a treatment, the treatments being untreated controls, units treated with phosphate, and units treated with phosphite. All pots were a mixture of steamed ML soil, sand, and inoculum. Control units (pots) received no other treatment. Phosphate pots were treated with K2HPO4. Phosphite pots were treated with an equivalent molarity (concentration) of P as K2HPO3.
(§3) Half of the pots (a control, phosphate, and phosphite treatments) were planted with yellow sweet clover seed. The other half of the pots (also a control, phosphate, and phosphite treatment) were not planted with any plants.
Phosphate and phosphite were added to the soil materials such that the phosphorus in each would constitute 80 mg per kg of soil (Table 6). This is more than was added to the field experimental plots described in Example 3. However, the results of that experiment (Example 4) did show a response of the AM fungi to phosphite. In Example 4, phosphorous either as phosphate or phosphite, was added at 61.53 ppm. In Example 4, there was no apparent inhibition of infection or spore production by addition of phosphorus. The level of P was raised to 80 mg per kg in this example to accentuate the impact of added P on the AM fungi. Each pot described in Table 6 contained 3.022.5 g of soil material (soil plus sand and inoculum).
The various treatment substrates, i.e., soil, sand, and inoculum, were mixed in batches. The control batch was established and mixed for the control treatments. Likewise, the phosphate and phosphite batches were mixed, respectively, for all phosphate and phosphite treatments. The treatments salts (K2HPO4 and K2HPO3) were added as 400 ml aqueous solution (chemical in distilled water to 400 ml). […]

[2] = tested on: AM fungi infection of yellow sweet clover (Melilotus officinalis) roots; experiment: Pot study: AM infection level of yellow sweet clover roots; format: in vivo; conditions: YBSC plants; 80 ppm treatment P; 66 days; infected 1.1 mm root segments per 80 examined
Description: as §1, §2, §3
Phosphate and phosphite were added to the soil materials such that the phosphorus in each would constitute 80 mg per kg of soil (Table 6). […]

[3] = YBSC (yellow sweet clover) plants

SMILES | AM Fungal Spores per 100 g soil [1, 3] | AM Fungal Spores per 100 g soil ([1]; no plants) | increase in spore population from the start of the study [1] | mature brownish reddish spores ([1]; planted, 66 days) | small, immature spores ([1]; planted, 66 days) | light colored to white spores ([1]; unplanted, 66 days) | mature brownish reddish spores ([1]; unplanted, 66 days) | small, immature spores ([1]; unplanted, 66 days) | increase in spore population at 66 days over the levels at time 0 ([1]; unplanted) | AM Infection level, % [2]
OP(O)O [PO3, dipotassium phosphite] | 4,598 per 100 g soil | 7,301 per 100 g soil | 1,127% | 3,480 per 100 g soil | 217 per 100 g soil | 1,429 spores per 100 g soil | 4,287 per 100 g soil | 1,585 per 100 g soil | 1,789% | 35%
O=P([O-])([O-])O.[K+].[K+] [PO4, dipotassium phosphate] | 7,146 per 100 g soil | 5,220 per 100 g soil | 1,751% | 2,827 per 100 g soil | 3,604 per 100 g soil | – | 2,237 per 100 g soil | 2,548 per 100 g soil | 1,279% | 47.5%
